Consider three compounds from patent publication US7763620B2, “Piperazinone compounds as anti-tumor and anti-cancer agents and methods of treatment” (Yale University, priority 2001, dated 2010).

In general, IC50 refers to the concentration that gives 50% inhibition.

In test [1] the test system is A-549 human lung cancer cells. Kind of test: Antitumor activity in the nude mouse tumor xenograft model (A-549). Format: in vivo. Particulars: A-549 s.c. xenograft in nude mice; for inhibition of A-549 tumor growth: 28-34 days, versus vehicle; for average tumor size: over a period of 28-34 days, vehicle about 600 mm^3, s.c. osmotic mini-pumps. An excerpt:
Antitumor activity in the nude mouse tumor xenograft model—Nude mice (Charles River, Wilmington, Mass.) were maintained in accordance with the Institutional Animal Care and Use Committee (IACUC) procedures and guidelines. A-549 cells were harvested, resuspended in PBS and injected s.c. into the right and left flank (7×10^6 cells per flank) of 8 week old female nude mice as reported previously (1, 2). When tumors reached 50 to 100 mm^3, animals either were implanted s.c. with 2-week osmotic mini-pumps (Alzet 2002, Alzet, Palo Alto, Calif.). The mini-pumps were implanted on the right flank and the tumor cells on the left flank. Control animals received a saline vehicle whereas treated animals were injected with either vehicle, GGTI-2154, GGTI-2418, GGTI-2432 and GGTI-2430. The tumor volumes were determined by measuring the length (l) and the width (w) and calculating the volume (V=lw^2/2) as described previously (30, 31).

The test system of test [2] is Rap1A processing by GGTase-I. In words: Inhibition of Rap1A processing (geranylgeranylation) in oncogenic H-Ras-transformed NIH 3T3 cells, immunoblot. It is filed as cell-based. The settings on record: read-out: IC50, block of Rap1A processing by GGTase-I. Here is the method: (§1) The in vitro inhibition assays of GGTase-1 and FTase were carried out by measuring the [^3H]GGPP and [^3H]FPP incorporated into H-Ras-CVLL and H-Ras-CVLS, respectively, as previously described.^27 The in vivo inhibition of geranylgeranylation and farnesylation was determined based on the level of inhibition of Rap1A and H-Ras processing, respectively.^10 Briefly, oncogenic H-Ras-transformed NIH 3T3 cells were treated with various concentrations of inhibitors, and the cell lysates were separated on 12.5% SDS-PAGE. The separated proteins were transferred to nitrocellulose and immunoblotted using an anti-Ras antibody (Y13-258) or an anti-Rap1A antibody (SC-65). Antibody reactions were visualized using either peroxidase-conjugated goat anti-rat IgG or goat anti-rabbit IgG and an enhanced chemiluminescence detection system. The results of those assays appear in Table 1 (FIG. 9), Table 2 (FIG. 10) and Table 3 (FIG. 11).
(In general: In western blotting, separated proteins are transferred to a membrane and probed.)

The target in the next test is GGTase-I (Homo sapiens, UniProt P49354+P53609). In words: In vitro GGTase-I inhibition ([3H]GGPP incorporation into H-Ras-CVLL). Particulars: Table 3, FIG. 11. It is filed as biochemical. Here is the method:
as §1

For `Cc1ccccc1-c1cc(NCc2cnc[nH]2)ccc1C(=O)N[C@@H](CC(C)C)C(=O)O` [GGTI-2154, reference compound], in test [1], the “inhibition of A-549 tumor growth” value was 66% and the average tumor size is on record as 250 mm^3.

Consider `COC(=O)[C@H](CC(C)C)NC(=O)N1CCN(Cc2nc[nH]c2C)C(=O)[C@@H]1Cc1ccccc1` [GGTI-2417], for which the IC50 in test [2] was 300 nM.

`Cc1nc[nH]c1CN1CCN(C(=O)N[C@@H](CC(C)C)C(=O)O)[C@@H](Cc2ccccc2)C1=O` [GGTI-2418]: the “inhibition of GGTase-I (activity in words)” value against GGTase-I is “exceptional activity”. For the same compound, in test [1], the “inhibition of A-549 tumor growth” value turned out to be 57% and the average tumor size was found to be 280 mm^3.
